Data from patent US9181266B2, “2-piperidin-1-yl-acetamide compounds for use as tankyrase inhibitors” (NOVARTIS AG, priority 2011, dated 2015).

Experiments:
[1] = system: Wnt ligand-induced signaling in HEK293 cells; assay: Wnt-responsive Super-TOpFlash (STF) luciferase reporter gene assay; format: cell-based; conditions: Homo sapiens, Wnt3A condition medium
Method: Cellular Reporter Gene Assay to Determine Compound Inhibition of Wnt Signaling Activity
Compound activity in inhibiting Wnt ligand-induced signaling was measured using a Wnt-responsive Super-TOpFlash (STF) luciferase reporter gene assay in HEK293 cells. On day 1 of the assay, cells were plated at a density of 8000 cells per well of 384-well plate in 25 μl medium containing 5% fetal bovine serum (FBS). On the second day, […] condition medium (CM) produced from mouse L cells was added to the cells to induce Wnt signaling, followed by addition of 5 μL of compounds each well in 10-point serial dilution. On the third day, the luciferase activity was measured by the Bright-Glo™ Luciferase Assay System following manufacture's protocol (Promega, E2620). The Inhibition was calculated as: (Maximum Wnt-induced signaling−Sample)/(Maximum Wnt-induced signaling−Background)*100. “Maximum Wnt-induced signaling” is the STF signal level induced by 20% Wnt3A CM without compound; and “Background” is the STF signal level without the addition of Wnt3A CM or compound.

[2] = system: Non-small lung cancer ABC-1 cells; assay: Cellular proliferation assay (CellTiter-Glo); format: cell-based; conditions: Homo sapiens, 72 h; ABC-1 cells, 3 days of compound treatment; read-out: ABC-1 IC50
Method: Cellular Proliferation Assay to Determine Compound Inhibition of Cancer Cell Growth
Viable cells were measured after 3 days of compound treatment using the CellTiter-Glo assay (Promega, G7570). Assay was performed following the manufacture protocol.

[3] = system: Axin2 protein in SW480 cells; assay: Cellular ELISA assay of Axin2 protein stabilization; format: cell-based; conditions: Homo sapiens, 24 hrs, read-out: Axin AC50
Method: Cellular ELISA Assay to Determine Compound Effect on Stabilizing the Axin2 Protein Compound activity in stabilizing the Axin2 protein was measured by Sandwich Enzyme-Linked Immuosorbent (ELISA) assay in the colorectal cell line SW480. 30,000 SW480 cells were seeded per well in 96-well plate and incubated overnight prior to compound treatment. […] Cells were then washed with 100 μL of cold Phosphate Buffer Saline (PBS), and lysed in 125 μl of cold 1× lysis buffer (Cell Signaling Technology, 9803) supplemented with Protease inhibitor (Roche, 11836170) and Phosphatase inhibitors (Sigma, P2850, P5726). For the ELISA assay, anti Axin-2 capture antibody (Strategic Diagnostics) antibody was diluted to a concentration of 1 μg/ml (1:1000) in Carbonate Coating buffer, pH 9.2 (Sigma, C3041-50CAP). […], of the diluted anti Axin-2 capture antibody per well was then used to coat the 96-well ELISA plate (Thermo Electron Corp., MicroLite 1 flat bottom plate #7571) overnight at 4° C. […] After blocking, plates were then washed three times with 300 μl/well of wash solution. 100 μL of prepared SW480 cell lysate was then added to each well and incubated at room temperature for 2 hours while shaking gently. After washing, 100 μL of Biotinylated anti-Axin2 antibody (CST, 2151) was added to each well and incubated room temperature for 2 hours. 100 μL of Streptavidin-HRP (R&D systems, DY998) diluted 1:200 in 1% BSA/PBS was then added in each well and incubate for 30 mins at R/T in the dark.

[4] = target: tankyrase 2 protein PARP domain, TNKS2P (Homo sapiens (Human), UniProt Q9H2K2); assay: TNKS2 autoparsylation assay (LC/MS detection of nicotinamide); conditions: read-out: TNKS2 AP IC50, 20 nM enzyme, 250 μM β-NAD+, 60 min
Sequence of tankyrase 2 protein PARP domain, TNKS2P (Q9H2K2 959-1164): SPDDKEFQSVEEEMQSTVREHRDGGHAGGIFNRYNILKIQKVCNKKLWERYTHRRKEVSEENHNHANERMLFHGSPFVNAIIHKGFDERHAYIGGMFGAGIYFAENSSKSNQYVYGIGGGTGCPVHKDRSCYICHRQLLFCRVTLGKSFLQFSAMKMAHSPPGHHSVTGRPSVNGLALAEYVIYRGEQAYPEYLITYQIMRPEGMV
Method: (§1) Biochemical Assay to Determine Compound Inhibition of TNKS Enzyme Activity
(§2) The autoparsylation activity of the TNKS 1/2 or PARP1/2 enzymes was measured by the liquid chromatography-mass spectrometry (LC/MS) detection of nicotinamide as readout. Compound activity in inhibiting the TNKS and PARP autoparsylation was evaluated by IC50 measurements. […] For the background control wells, 10 μL of the 5× quenching solution per well was added prior to the addition of β-NAD^+. The % Inhibition was calculated as: (Control−Sample)/(Control−Background)*100.

[5] = target: human tankyrase 1 PARP catalytic domain, TNKS1P (Homo sapiens (Human), UniProt O95271); assay: TNKS1 autoparsylation assay (LC/MS detection of nicotinamide); conditions: read-out: TNKS1 AP IC50, 20 nM enzyme, 250 μM β-NAD+, 60 min
Sequence of human tankyrase 1 PARP catalytic domain, TNKS1P (O95271 1112-1317): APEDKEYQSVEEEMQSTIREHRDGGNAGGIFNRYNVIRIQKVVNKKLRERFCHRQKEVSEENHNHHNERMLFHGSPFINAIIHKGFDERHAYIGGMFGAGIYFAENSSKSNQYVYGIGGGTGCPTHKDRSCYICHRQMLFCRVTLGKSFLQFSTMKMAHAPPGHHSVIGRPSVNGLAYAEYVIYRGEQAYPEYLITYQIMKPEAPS
Method: as §1, §2

## COc1ccc(C(=O)C2CCN(CC(=O)NCc3nc4c(c(=O)[nH]3)CCCCC4)CC2)cc1 [Example 6, 2-(4-(4-Methoxybenzoyl)piperidin-1-yl)-N-((4-oxo-4,5,6,7,8,9-hexahydro-3H-cyclohepta[d]pyrimidin-2-yl)methyl)acetamide]
[1]
  IC50: 56 ± 7 nM
[2]
  IC50: 484 nM
[3]
  AC50: 293 ± 8 nM
[4]
  IC50: 353 ± 8 nM
[5]
  IC50: 575 ± 25 nM

## COc1ccc(C(=O)C2CCN(CC(=O)N(Cc3nc4c(c(=O)[nH]3)CCCCC4)CC3CC3)CC2)cc1 [Example 7, N-(Cyclopropylmethyl)-2-(4-(4-methoxybenzoyl)piperidin-1-yl)-N-((4-oxo-4,5,6,7,8,9-hexahydro-3H-cyclohepta[d]pyrimidin-2-yl)methyl)acetamide]
[1]
  IC50: 180 ± 70 nM
[2]
  IC50: 691 nM
[3]
  AC50: 680 ± 90 nM
[4]
  IC50: 371 ± 3 nM
[5]
  IC50: 714 ± 5 nM

## O=C(c1ccc(F)cc1)C1CCN(CC(=O)N(Cc2ccccc2)Cc2nc3c(c(=O)[nH]2)COCC3)CC1 [Example 38, N-Benzyl-2-(4-(4-fluorobenzoyl)piperidin-1-yl)-N-((4-oxo-4,5,7,8-tetrahydro-3H-pyrano[4,3-d]pyrimidin-2-yl)methyl)acetamide]
[2]
  IC50: 833 nM
[3]
  AC50: 372 ± 86 nM
[5]
  IC50: 82 ± 1 nM

## O=C(CN1CCC(c2nnc(-c3ccccc3)o2)CC1)NCc1nc2c(c(=O)[nH]1)COCC2 [Example 52, N-(4-Oxo-3,5,7,8-tetrahydro-4H-pyrano[4,3-d]pyrimidin-2-ylmethyl)-2-[4-(5-phenyl-[1,3,4]oxadiazol-2-yl)-piperidin-1-yl]-acetamide]
[1]
  IC50: 155 ± 8 nM
[2]
  IC50: 2800 nM
[3]
  AC50: 1090 ± 170 nM
[4]
  IC50: 170 ± 30 nM
[5]
  IC50: 1190 ± 150 nM

## COCCN(Cc1nc2c(c(=O)[nH]1)COCC2)C(=O)CN1CCC(c2nnc(-c3ccccc3)o2)CC1 [Example 53]
[1]
  IC50: 430 ± 50 nM
[2]
  IC50: 2160 nM
[3]
  AC50: 2100 ± 200 nM
[4]
  IC50: 142 ± 19 nM
[5]
  IC50: 1130 ± 270 nM

## O=C(CN1CCC(c2nnc(-c3ccc(F)cc3)o2)CC1)NCc1nc2c(c(=O)[nH]1)COCC2 [Example 55, 2-{4-[5-(4-Fluoro-phenyl)-[1,3,4]oxadiazol-2-yl]piperidin-1-yl}-N-(4-oxo-3,5,7,8-tetrahydro-4H-pyrano[4,3-d]pyrimidin-2-ylmethyl)-acetamide]
[1]
  IC50: 4.7 ± 1.8 nM
[2]
  IC50: 83 nM
[3]
  AC50: 25 ± 5 nM
[4]
  IC50: 78 ± 4 nM
[5]
  IC50: 487 ± 16 nM

## O=C(CN1CCC2(CC1)Cc1cc(F)ccc1C2=O)N(Cc1nc2c(c(=O)[nH]1)COCC2)CC1CC1 [Example 62, N-(Cyclopropylmethyl)-2-(5-fluoro-1-oxo-1,3-dihydrospiro[indene-2,4′-piperidine]-1′-yl)-N-((4-oxo-4,5,7,8-tetrahydro-3H-pyrano[4,3-d]pyrimidin-2-yl)methyl)acetamide]
[1]
  IC50: 115 ± 17 nM
[2]
  IC50: 470 nM
[3]
  AC50: 560 ± 150 nM
[4]
  IC50: 4 ± 1 nM
[5]
  IC50: 17 ± 1 nM

## COc1ccc2c(c1)CC1(CCN(CC(=O)N(Cc3nc4c(c(=O)[nH]3)COCC4)CC3CC3)CC1)C2=O [Example 63, N-(Cyclopropylmethyl)-2-(5-methoxy-1-oxo-1,3-dihydrospiro[indene-2,4′-piperidine]-1′-yl)-N-((4-oxo-4,5,7,8-tetrahydro-3H-pyrano[4,3-d]pyrimidin-2-yl)methyl)acetamide]
[1]
  IC50: 11.9 ± 3.1 nM
[2]
  IC50: 158 nM
[3]
  AC50: 137 ± 31 nM
[4]
  IC50: 1 ± 1.4 nM
[5]
  IC50: 10 ± 1.4 nM

## COc1ccc2c(c1)CC1(CCN(CC(=O)N(Cc3nc4c(c(=O)[nH]3)COCC4)CC(F)F)CC1)C2=O [Example 64, N-(2,2-Difluoro-ethyl)-2-(5-methoxy-1-oxo-1,3-dihydrospiro[indene-2,4′-piperidine]-1′-yl)-N-((4-oxo-4,5,7,8-tetrahydro-3H-pyrano[4,3-d]pyrimidin-2-yl)methyl)acetamide]
[1]
  IC50: 1.2 ± 0.5 nM
[2]
  IC50: 12 nM
[3]
  AC50: 9 ± 3 nM
[4]
  IC50: 2.5 ± 0.7 nM
[5]
  IC50: 10 ± 1.4 nM

## O=C(CN1CCC2(CCc3ccccc3C2=O)CC1)NCc1nc2c(c(=O)[nH]1)COCC2 [Example 65, 2-(1-oxo-3,4-dihydro-1H-spiro[naphthalene-2,4′-piperidine]-1′-yl)-N-((4-oxo-4,5,7,8-tetrahydro-3H-pyrano[4,3-d]pyrimidin-2-yl)methyl)acetamide]
[1]
  IC50: 0.7 ± 0.2 nM
[2]
  IC50: 26 nM
[3]
  AC50: 12 ± 3 nM
[4]
  IC50: 760 ± 15 nM
[5]
  IC50: 3100 ± 400 nM

## O=C(c1ccccc1)C1CCN(CC(=O)N(Cc2nc3c(c(=O)[nH]2)COCC3)CC(F)F)CC1 [Example 68, 2-(4-Benzoyl-piperidin-1-yl)-N-(2,2-difluoro-ethyl)-N-(4-oxo-3,5,7,8-tetrahydro-4H-pyrano[4,3-d]pyrimidin-2-ylmethyl)-acetamide]
[1]
  IC50: 5.2 ± 0.8 nM
[2]
  IC50: 75 nM
[3]
  AC50: 41 ± 7 nM
[4]
  IC50: 5 ± 1 nM
[5]
  IC50: 31 ± 1 nM

## O=C(c1ccc(Cl)cc1)C1CCN(CC(=O)N(Cc2nc3c(c(=O)[nH]2)COCC3)CC(F)F)CC1 [Example 69, 2-[4-(4-Chloro-benzoyl)-piperidin-1-yl]-N-(2,2-difluoro-ethyl)-N-(4-oxo-3,5,7,8-tetrahydro-4H-pyrano[4,3-c]pyrimidin-2-ylmethyl)-acetamide]
[1]
  IC50: 20 ± 9 nM
[2]
  IC50: 709 nM
[3]
  AC50: 930 ± 450 nM
[4]
  IC50: 18 ± 1 nM
[5]
  IC50: 35 ± 4 nM

## COc1ccccc1C(=O)C1CCN(CC(=O)N(Cc2nc3c(c(=O)[nH]2)COCC3)CC(F)F)CC1 [Example 72, N-(2,2-Difluoro-ethyl)-2-[4-(2-methoxy-benzoyl)-piperidin-1-yl]-N-(4-oxo-3,5,7,8-tetrahydro-4H-pyrano[4,3-d]pyrimidin-2-ylmethyl)-acetamide]
[1]
  IC50: 8.7 ± 0.3 nM
[2]
  IC50: 96 nM
[3]
  AC50: 52 ± 28 nM
[4]
  IC50: 85 ± 20 nM
[5]
  IC50: 420 ± 110 nM

## O=C(c1cccc(OC(F)(F)F)c1)C1CCN(CC(=O)N(Cc2nc3c(c(=O)[nH]2)COCC3)CC(F)F)CC1 [Example 74, N-(2,2-Difluoro-ethyl)-N-(4-oxo-3,5,7,8-tetrahydro-4H-pyrano[4,3-d]pyrimidin-2-ylmethyl)-2-[4-(3-trifluoromethoxy-benzoyl)-piperidin-1-yl]-acetamide]
[1]
  IC50: 35.1 ± 3.4 nM
[2]
  IC50: 590 nM
[3]
  AC50: 508 ± 50 nM
[4]
  IC50: 38 ± 4 nM
[5]
  IC50: 155 ± 15 nM

## O=C(c1ccccn1)C1CCN(CC(=O)N(Cc2nc3c(c(=O)[nH]2)COCC3)CC2CC2)CC1 [Example 76, N-Cyclopropylmethyl-N-(4-oxo-3,5,7,8-tetrahydro-4H-pyrano[4,3-d]pyrimidin-2-ylmethyl)-2-[4-(pyridine-2-carbonyl)-piperidin-1-yl]-acetamide]
[1]
  IC50: 32 ± 10 nM
[2]
  IC50: 236 nM
[3]
  AC50: 176 ± 14 nM
[4]
  IC50: 32 ± 1 nM
[5]
  IC50: 105 ± 1 nM

## O=C(c1ccc(OCc2ccccc2)cc1)C1CCN(CC(=O)N(Cc2nc3c(c(=O)[nH]2)COCC3)CC2CC2)CC1 [Example 77]
[1]
  IC50: 55 ± 8 nM
[2]
  IC50: 2710 nM
[3]
  AC50: 4480 ± 90 nM
[4]
  IC50: 764 ± 51 nM
[5]
  IC50: 1170 ± 50 nM

## O=C(CN1CCC(C(=O)N2CCc3ccccc3C2)CC1)NCc1nc2c(c(=O)[nH]1)COCC2 [Example 79, N-((4-Oxo-4,5,7,8-tetrahydro-3H-pyrano[4,3-d]pyrimidin-2-yl)methyl)-2-(4-(1,2,3,4-tetrahydroisoquinoline-2-carbonyl)piperidin-1-yl)acetamide]
[1]
  IC50: 6.5 ± 2.7 nM
[2]
  IC50: 26 nM
[3]
  AC50: 27 ± 3 nM
[4]
  IC50: 815 ± 28 nM
[5]
  IC50: 3020 ± 49 nM

## COc1ccc(C(=O)C2CCN(CC(=O)NCc3nc4c(c(=O)[nH]3)COCC4)CC2)cc1OC [Example 90, 2-[4-(3,4-Dimethoxy-benzoyl)-piperidin-1-yl]-N-(4-oxo-3,5,7,8-tetrahydro-4H-pyrano[4,3-c]pyrimidin-2-ylmethyl)-acetamide]
[1]
  IC50: 10.3 ± 0.8 nM
[2]
  IC50: 38 nM
[3]
  AC50: 20 ± 5 nM
[4]
  IC50: 18 nM
[5]
  IC50: 42 ± 2 nM
